Measurements taken from ChEMBL document CHEMBL5241071, “Covalent Small Molecule Immunomodulators Targeting the Protease Active Site” (J Med Chem, 2021).

What was measured:
Neutrophil elastase = biological target: T1, Neutrophil elastase (Homo sapiens, UniProt P08246); assay: Inhibition of human NE
T1 sequence (P08246 whole entry): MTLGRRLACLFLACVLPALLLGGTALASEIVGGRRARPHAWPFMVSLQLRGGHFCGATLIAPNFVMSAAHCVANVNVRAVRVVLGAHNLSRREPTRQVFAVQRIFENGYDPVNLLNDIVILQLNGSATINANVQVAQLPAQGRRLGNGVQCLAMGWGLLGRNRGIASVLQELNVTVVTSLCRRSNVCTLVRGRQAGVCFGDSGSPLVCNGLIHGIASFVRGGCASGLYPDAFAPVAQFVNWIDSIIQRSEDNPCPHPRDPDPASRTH

[1] = biological target: T2, Granzyme A (Homo sapiens) (UniProt P12544); assay: Inhibition of human recombinant GzmA assessed as Kobs/[I]
T2 sequence (whole entry): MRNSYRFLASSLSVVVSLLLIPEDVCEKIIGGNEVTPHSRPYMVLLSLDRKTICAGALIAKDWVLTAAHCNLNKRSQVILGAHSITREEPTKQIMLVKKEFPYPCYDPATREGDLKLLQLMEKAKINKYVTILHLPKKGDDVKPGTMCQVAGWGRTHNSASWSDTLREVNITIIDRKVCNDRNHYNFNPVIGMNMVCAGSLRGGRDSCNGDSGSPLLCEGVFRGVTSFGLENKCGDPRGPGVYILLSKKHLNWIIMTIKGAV

kobs/[I] [1]	SMILES	IC50 (Neutrophil elastase)
–	O=S(=O)(F)Oc1ccccc1S(=O)(=O)F	240 nM
94000 M⁻¹ s⁻¹	N=C(N)SCCOc1oc(=O)c2cc(NC(=O)Nc3ccccc3)ccc2c1Cl	–
